Results: US20220218710A1, “Inhibition of Neddylation for Treatment of MS” (The Regents of the University of California, priority 2019, published 2022)

Tested on: experimental autoimmune encephalomyelitis (EAE)
Assay type: in vivo, C57BL/6 mice
Experimental: FIGS. 3A, 3B, and 3C. FIGS. 3A, 3B, and 3C depicts pevonedistat treatment effects in an MS animal model. FIG. 3A depicts the trial design: C57BL/6 mice were treated daily starting on Day−1 with either Pevonedistat (20 mg/kg) or placebo (n=10/group). The result shown here is one representative of two independent experiments. EAE was induced through active immunization with myelin oligodendrocyte (MOG) peptide 35-55 following standard protocols (triangles). Weights were taken on D−1, D7, and D14 (dots). Animals were scored daily. Mice were sacrificed and brain and spinal cords of were harbored on Day 16 at peak disease (n=4/group) (triangle). FIG. 3B depicts EAE severity: Diseases was assessed blinded using a […] scale from 0 to 5 (0=no symptoms, 5=death). Data shown here are from one representative of two experiments. FIG. 3C depicts mice weights over the course of the experiment. ****p-value<0.001, 2-way ANOVA test.
EAE induction and neddylation inhibition in mice. Four weeks old female C57BL/6 mice were used. All mice were housed in closed caging systems and provided with standard irradiated chow diet, acidified water ad libitum and housed under a 12-hour light cycle. Pevonedistat (MLN4924) (Chemietek Inc., Indianapolis, Ind.) was dissolved in DMSO and further diluted in 30% of PEG300 and 5% of TWEEN in ddH2O at a concentration of 40 mg/mL and stored at −20° C. 7-8 week old mice were treated daily with 20 mg/kg Pevonedistat or vehicle (same concentration of buffer without Pevonedistat) starting at day −1. Mice were immunized subcutaneously on day 0 with 100 μg MOG35-55 emulsified in incomplete Freund's adjuvant supplemented with Mycobacterium tuberculosis followed by two intraperitoneal injections on Day 0 and Day 2 with 300 ng pertussis each. […] Mice were scored daily on a […] scale in a blinded fashion as follows: 0, no deficit; 1, limp tail only; 2, limp tail and hind limb weakness; 3, complete hind limb paralysis; 4, complete hind limb paralysis and partial/complete forelimb paralysis; 5, death.
Inhibition of neddylation reduces EAE. […] Pevonedistat (MLN4924), which is a small molecule and first-in-class inhibitor of NAE was next used in experimental autoimmune encephalomyelitis (EAE), an established MS mouse model driven by a strong CD4+ T cell response (FIG. 3A). Although Pevonedistat was originally tested as a cancer therapy, recent studies proposed this agent as a potential therapeutic target for immune-related diseases due to the important role of neddylation in immune cell functions.

[1] = 20 mg/kg daily, EAE mice at peak disease

NS(=O)(=O)OC[C@@H]1C[C@@H](n2ccc3c(N[C@H]4CCc5ccccc54)ncnc32)C[C@@H]1O [Pevonedistat, pevonedistat]
EAE severity (10-point scale from 0 to 5, scored daily, blinded) (20 mg/kg daily from day -1, compared to placebo-treated group, FIG. 3B): significantly reduced EAE severity
density of CD3+ T cells in spinal cord [1]: decreased densities
density of Iba1+ myeloid cells in spinal cord [1]: decreased densities
spinal cord inflammation (inflammatory infiltrates) (20 mg/kg daily, EAE spinal cords at peak disease, vs placebo): dramatic reduction in spinal cord inflammation
demyelination, histological assessment of CNS tissue (20 mg/kg daily, at peak disease (Day 16)): significant reduction of demyelination
mice weights during the disease course (20 mg/kg daily, placebo group had significant weight loss at peak of disease, FIG. 3C): steady weight
